Consider 15 compounds from US11040028B2, “Penicinotam derivative, preparation method and use thereof” (OCEAN UNIVERSITY OF CHINA, priority 2017, dated 2021).

One may read the IC50 as the concentration at which inhibition is half-maximal.

Common to all, as to type: cell-based
In assay [1] the test system is cardiac fibroblast RAT-iCell-C002. Description: Anti-fibrosis activity test: inhibition of proliferation of cardiac fibroblast RAT-iCell-C002 (CCK-8). Particulars: Cardiac fibroblast, 48 h, cardiac fibroblast RAT-iCell-C002, CCK-8, 48 hours. Put shortly: (§1)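 Seed 2×10^4 cells/mL; adhere 24 h, 37° C/5% CO2. Compounds, serial concentrations, triplicate, 48 h. CCK-8 2 h, A450. IR=(1−Ai/Ao)×100% vs blank; IC50 fitted. Pirfenidone as positive control.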

Assay [2] relates to BHK-21 cells. In words: Anti-fibrosis activity test: inhibition of BHK-21 cell proliferation (CCK-8). Particulars: Mesocricetus auratus, BHK-21, 48 h, CCK-8, 48 hours after administration. The gist of the method: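 Each concentration was tested in triplicate on adhered BHK-21 cells for 48 h, with pirfenidone as reference. A 2 h CCK-8 incubation preceded absorbance reading at 450 nm, and IC50 was obtained from percent inhibition versus blank.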

For assay [3], the system named is mouse macrophages (RAW264.7). In words: Lipopolysaccharide-induced NO secretion in macrophages (Griess). The conditions noted are these: Mus musculus, RAW264.7, 24 h, RAW264.7, LPS 1 μg/ml, a/b isomers given as first/second symbol, read-out: IC50 (μM), inhibition of lipopolysaccharide-induced NO secretion in macrophages. Put shortly: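 LPS 1 μg/ml, 24 h, RAW264.7 (DMEM/10% FBS); cpds at varied concs. Supernatant NO by Griess, A548; % inhibition vs blank medium.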

Assay [4] relates to human fibrosarcoma cells HT-1080. Description: Anti-fibrosis activity test: inhibition of proliferation of human fibrosarcoma cells HT-1080 (CCK-8). The conditions noted are these: Homo sapiens, HT-1080, 48 h, human fibrosarcoma cells HT-1080, CCK-8, 48 hours. The gist of the method: as §1
The test system of assay [5] is NF-κB. Description: Immunological activity test: inhibition of NF-κB activity. Particulars: initial concentration of 30 μM; a/b isomers given as first/second symbol; read-out: IC50 (μM), inhibitory activity against NF-κB. Put shortly: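 Parthenolide as positive control; starting test concentration 30 μM; inhibition of NF-κB activity analysed further to yield IC50.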

The test system of assay [6] is human hepatic stellate cells LX-2. Description: Anti-fibrosis activity test: inhibition of proliferation of human hepatic stellate cells LX-2 (CCK-8). Particulars: Homo sapiens, 48 h, human hepatic stellate cells LX-2, CCK-8, 48 hours. The gist of the method: as §1
Assay [7] deals with human embryonic lung fibroblast IMR-90. In words: Anti-fibrosis activity test: inhibition of proliferation of human embryonic lung fibroblast IMR-90 (CCK-8). The conditions noted are these: human embryonic lung fibroblast IMR-90, CCK-8, 48 hours. The gist of the method:
as §1

Assay [8] concerns human dermal fibroblasts CCC-ESF-1. In words: Anti-fibrosis activity test: inhibition of proliferation of human dermal fibroblasts CCC-ESF-1 (CCK-8). The conditions noted are these: Fibroblast; human dermal fibroblasts CCC-ESF-1, CCK-8, 48 hours. Put shortly: as §1
Assay [9] deals with human lung fibroblasts HFL1. In words: Anti-fibrosis activity test: inhibition of proliferation of human lung fibroblasts HFL1 (CCK-8). The conditions noted are these: Homo sapiens, HFL1, 48 h, human lung fibroblasts HFL1, CCK-8, 48 hours. Put shortly: as §1

Consider `C=CCn1c2c(c(=O)c3ccccc31)C(=O)n1cccc1-2` [Compound 6a, 4-Allyl-9H-pyrrolizino[1,2-b]quinoline-9,10(4H)-dione], for which the IC50 in [1] was 0.05 to 5 mM; in assay [2] it was 0.05 to 5 mM; in assay [3], 1 to 10 µM; in [4], below 0.05 mM; in [5], 1 to 10 µM; in assay [6], 0.05 to 5 mM. The IC50 in assay [7], in assay [8] and in assay [9] was 0.05 to 5 mM each time.

Turning to `C=CCOc1c2c(nc3ccccc13)-c1cccn1C2=O` [Compound 6b, 9-(allyloxy)-10H-pyrrolizino[1,2-b]quinolin-10-one], the concentration for half-maximal inhibition (IC50) in assay [1] lay within 0.05 to 5 mM; in assay [2], 0.05 to 5 mM; in assay [3], 1 to 10 µM; in [4], 0.05 to 5 mM; in assay [5], 1 to 10 µM; in assay [6], 0.05 to 5 mM. The 50% inhibitory concentration (IC50) in [7] is 0.05 to 5 mM; in assay [8] it was 5 to 20 mM; in assay [9] it was 0.05 to 5 mM.

`C#CCn1c2c(c(=O)c3ccccc31)C(=O)n1cccc1-2` [Compound 7a, 4-(Prop-2-yn-1-yl)-9H-pyrrolizino[1,2-b]quinoline-9,10(4H)-dione]: the IC50 in assay [1] was 0.05 to 5 mM; in [2], below 0.05 mM; in assay [3], 0.1 to 1 µM; in assay [4], 0.05 to 5 mM; in assay [5], 1 to 10 µM; in [6], 0.05 to 5 mM. Further, the IC50 in [7] was 0.05 to 5 mM; in [8] it was below 0.05 mM; in assay [9] it was 0.05 to 5 mM.

Take `C#CCOc1c2c(nc3ccccc13)-c1cccn1C2=O` [Compound 7b, 9-(prop-2-yn-1-yloxy)-10H-pyrrolizino[1,2-b]quinolin-10-one]: the IC50 lay in the range of 0.05 to 5 mM in assay [1]; 0.05 to 5 mM in assay [2]; 0.1 to 1 µM in [3]; 0.05 to 5 mM in [4]; 1 to 10 µM in assay [5]; 0.05 to 5 mM in assay [6]. The values for the IC50 in assay [7], in assay [8] and in assay [9] were 0.05 to 5 mM, below 0.05 mM and 0.05 to 5 mM, respectively.

As for `O=C1c2c(n(CCO)c3ccccc3c2=O)-c2cccn21` [Compound 11a, 4-(2-Hydroxyethyl)-9H-pyrrolizino[1,2-b]quinoline-9,10(4H)-dione], the IC50 in assay [1] was 0.05 to 5 mM; in assay [2] it was 0.05 to 5 mM; in assay [3] it was 1 to 10 µM; in [4] it was 0.05 to 5 mM; in assay [5], 1 to 10 µM; in [6], 0.05 to 5 mM. The IC50 in assay [7], in [8] and in [9] was 0.05 to 5 mM each time.

For `O=C1c2c(nc3ccccc3c2OCCO)-c2cccn21` [Compound 11b, 9-(2-hydroxyethoxy)-10H-pyrrolizino[1,2-b]quinolin-10-one], the IC50 in [1] lay in the range of 0.05 to 5 mM; in [2], 0.05 to 5 mM; in assay [3], 1 to 10 µM; in [4], 0.05 to 5 mM; in assay [5], 1 to 10 µM; in [6], 0.05 to 5 mM. In addition, the IC50 in assay [7], in [8] and in assay [9] was 0.05 to 5 mM each time.

For the compound `CN(C)CCn1c2c(c(=O)c3ccccc31)C(=O)n1cccc1-2` [Compound 12a, 4-(2-(Dimethylamino)ethyl)-9H-pyrrolizino[1,2-b]quinoline-9,10(4H)-dione], the IC50 lay in the range of 0.05 to 5 mM in assay [1]; 0.05 to 5 mM in [2]; 1 to 10 µM in [3]; 0.05 to 5 mM in [4]; 1 to 10 µM in assay [5]; 0.05 to 5 mM in assay [6]. The IC50 in assay [7], in assay [8] and in [9] was 0.05 to 5 mM throughout.

For `CN(C)CCOc1c2c(nc3ccccc13)-c1cccn1C2=O` [Compound 12b, 9-(2-(dimethylamino)ethoxy)-10H-pyrrolizino[1,2-b]quinolin-10-one], the IC50 in [1] fell in the range of 0.05 to 5 mM; in assay [2], 0.05 to 5 mM; in assay [3] it was 1 to 10 µM; in assay [4] it was 0.05 to 5 mM; in assay [5], 1 to 10 µM; in assay [6] it was 0.05 to 5 mM. Further, the IC50 in [7], in assay [8] and in [9] was 0.05 to 5 mM throughout.

As for `O=C1c2c(n(CCCO)c3ccccc3c2=O)-c2cccn21` [Compound 16a, 4-(3-Hydroxypropyl)-9H-pyrrolizino[1,2-b]quinoline-9,10(4H)-dione], the IC50 in [1] was 0.05 to 5 mM; in assay [2] it was 0.05 to 5 mM; in assay [3], 1 to 10 µM; in [4] it was 0.05 to 5 mM; in [5], 1 to 10 µM; in assay [6] it was 0.05 to 5 mM. Besides, the half-maximal inhibitory concentration (IC50) in [7], in assay [8] and in assay [9] was 0.05 to 5 mM each time.

Take `O=C1c2c(nc3ccccc3c2OCCCO)-c2cccn21` [Compound 16b, 9-(3-hydroxypropoxy)-10H-pyrrolizino[1,2-b]quinolin-10-one]: the half-maximal inhibitory concentration (IC50) is 0.05 to 5 mM in assay [1]; 0.05 to 5 mM in assay [2]; 1 to 10 µM in assay [3]; 0.05 to 5 mM in assay [4]; 1 to 10 µM in [5]; 0.05 to 5 mM in [6]. Moreover, the IC50 in assay [7], in assay [8] and in [9] was 0.05 to 5 mM in each case.

As for `O=C(Cn1c2c(c(=O)c3ccccc31)C(=O)n1cccc1-2)c1ccc(-c2ccccc2)cc1` [Compound 50a, 4-(2-([1,1′-Biphenyl]-4-yl)-2-oxoethyl)-9H-pyrrolizino[1,2-b]quinoline-9,10(4H)-dione], the IC50 was in the range of 5 to 20 mM in [1]; 0.05 to 5 mM in [2]; 1 to 10 µM in assay [3]; 0.05 to 5 mM in assay [4]; 1 to 10 µM in [5]; 5 to 20 mM in assay [6]. Further, the IC50 in [7] was in the range of 5 to 20 mM; in assay [8] it was 0.05 to 5 mM; in assay [9], 0.05 to 5 mM.

Take `O=C(COc1c2c(nc3ccccc13)-c1cccn1C2=O)c1ccc(-c2ccccc2)cc1` [Compound 50b, 9-(2-([1,1′-biphenyl]-4-yl)-2-oxoethoxy)-10H-pyrrolizino[1,2-b]quinolin-10-one]: the IC50 in assay [1] is 5 to 20 mM; in [2], 0.05 to 5 mM; in assay [3], 1 to 10 µM; in assay [4], 0.05 to 5 mM; in assay [5] it was 1 to 10 µM; in assay [6], 5 to 20 mM. Besides, the IC50 in [7] was 5 to 20 mM; in assay [8], below 0.05 mM; in assay [9], 0.05 to 5 mM.

As to `O=C(O)c1ccccc1-c1ccc(Cn2c3c(c(=O)c4ccccc42)C(=O)n2cccc2-3)cc1` [Compound 81a, 4′-((9,10-Dioxo-9H-pyrrolizino[1,2-b]quinolin-4(10H)-yl)methyl)-[1,1′-biphenyl]-2-carboxylic acid], the IC50 in assay [1] was 0.05 to 5 mM; in [2], below 0.05 mM; in assay [3], 1 to 10 µM; in assay [4], 0.05 to 5 mM; in [5], 1 to 10 µM; in [6] it was below 0.05 mM. Moreover, the concentration for half-maximal inhibition (IC50) is below 0.05 mM in assay [7], 0.05 to 5 mM in assay [8] and 0.05 to 5 mM in assay [9].

Turning to `O=C(O)c1ccccc1-c1ccc(COc2c3c(nc4ccccc24)-c2cccn2C3=O)cc1` [Compound 81b, 4′-(((10-oxo-10H-pyrrolizino[1,2-b]quinolin-9-yl)oxy)methyl)-[1,1′-biphenyl]-2-carboxylic acid], the 50% inhibitory concentration (IC50) in [1] is 0.05 to 5 mM; in assay [2], 0.05 to 5 mM; in assay [3] it was 1 to 10 µM; in [4], 0.05 to 5 mM; in [5], 1 to 10 µM; in assay [6], below 0.05 mM. For the same compound, the IC50 in assay [7], in [8] and in [9] was 0.05 to 5 mM throughout.

On to `O=C(Cn1c2c(c(=O)c3ccccc31)C(=O)n1cccc1-2)c1ccc(Cl)cc1` [Compound 90a, 4-(2-(4-Chlorophenyl)-2-oxoethyl)-9H-pyrrolizino[1,2-b]quinoline-9,10(4H)-dione], for which the IC50 in assay [1] was 0.05 to 5 mM; in [2] it was 0.05 to 5 mM; in assay [3], 0.1 to 1 µM; in [4] it was 0.05 to 5 mM; in [5] it was 1 to 10 µM; in assay [6], below 0.05 mM. The IC50 in [7], in [8] and in [9] was 0.05 to 5 mM throughout.
